These results are taken from PMC4441267.

The nature of this series: CuAAC macrocyclisation of azide/terminal alkyne linear peptidomimetics to 1,4-triazole (CuI 2 eq, DIPEA 3 eq, Ar-degassed), then Boc removal (TMSCl/MeOH GP4; HCl/dioxane GP5 for A13w, J13w). The settings on record: THF (reflux), 1.2 mM, 66.0 °C, 18.0 h, 2 steps.

As to `COC(=O)[C@@H]1CCCn2cc(nn2)CCCC(=O)Nc2ccc(cc2)C[C@H](NC(=O)OC(C)(C)C)C(=O)N[C@@H](C)C(=O)N1` [Boc-Phe(4-NH-5-hexynoyl)-Ala-Orn(N3)-OMe], the ring closure, yield over several steps (from C#CCCCC(=O)Nc1ccc(C[C@H](NC(=O)OC(C)(C)C)C(=O)N[C@@H](C)C(=O)N[C@@H](CCCN=[N+]=[N-])C(=O)OC)cc1, 23-membered ring) came out at 21%. `COC(=O)[C@@H]1CCCCn2cc(nn2)CNC(=O)NC[C@H](NC(=O)OC(C)(C)C)C(=O)N1` [Boc-Dap(CONH-propargyl)-Lys(N3)-OMe] gave a ring closure, yield over several steps (from C#CCNC(=O)NC[C@H](NC(=O)OC(C)(C)C)C(=O)N[C@@H](CCCCN=[N+]=[N-])C(=O)OC, 16-membered ring) of 56%. The molecule `COC(=O)[C@@H]1CNC(=O)[C@H](Cc2ccccc2)n2cc(nn2)CNC(=O)NCCC[C@H](NC(=O)OC(C)(C)C)C(=O)N1` [Boc-Orn(CONH-propargyl)-Dap(N3-Phe)-OMe] yielded a ring closure, yield over several steps (from C#CCNC(=O)NCCC[C@H](NC(=O)OC(C)(C)C)C(=O)N[C@@H](CNC(=O)[C@H](Cc1ccccc1)N=[N+]=[N-])C(=O)OC, 18-membered ring) of 96%. `COC(=O)[C@@H]1CNC(=O)[C@H](Cc2ccccc2)n2cc(nn2)CCCC(=O)NCCC[C@H](NC(=O)OC(C)(C)C)C(=O)N1` [Boc-Orn(5-hexynoyl)-Dap(N3-Phe)-OMe] returned a ring closure, yield over several steps (from C#CCCCC(=O)NCCC[C@H](NC(=O)OC(C)(C)C)C(=O)N[C@@H](CNC(=O)[C@H](Cc1ccccc1)N=[N+]=[N-])C(=O)OC, 19-membered ring) of 99%. In the case of `COC(=O)[C@@H]1CCCn2cc(nn2)CNC(=O)NC[C@H](NC(=O)OC(C)(C)C)C(=O)N[C@H](C(=O)OC)CCC(=O)N1` [Boc-Dap(CONH-propargyl)-Glu(gamma-Orn(N3)-OMe)-OMe], under “from C#CCNC(=O)NC[C@H](NC(=O)OC(C)(C)C)C(=O)N[C@@H](CCC(=O)N[C@@H](CCCN=[N+]=[N-])C(=O)OC)C(=O)OC, 20-membered ring”, the ring closure, yield over several steps worked out at 78%. Where the note is “from C#CCCC(=O)NCC[C@H](NC(=O)OC(C)(C)C)C(=O)N[C@@H](CCCCN=[N+]=[N-])C(=O)OC, 17-membered ring”, `COC(=O)[C@@H]1CCCCn2cc(nn2)CCC(=O)NCC[C@H](NC(=O)OC(C)(C)C)C(=O)N1` [Boc-Dab(4-pentynoyl)-Lys(N3)-OMe] registered a ring closure, yield over several steps of 62%. `COC(=O)[C@@H]1CCCn2cc(nn2)CCCC(=O)NC[C@H](NC(=O)OC(C)(C)C)C(=O)N1` [Boc-Dap(5-hexynoyl)-Orn(N3)-OMe] gave a ring closure, yield over several steps (from C#CCCCC(=O)NC[C@H](NC(=O)OC(C)(C)C)C(=O)N[C@@H](CCCN=[N+]=[N-])C(=O)OC, 16-membered ring) of 52%. Regarding `COC(=O)[C@@H]1CNC(=O)[C@H](Cc2ccccc2)n2cc(nn2)CCCC(=O)NCCCC[C@H](NC(=O)OC(C)(C)C)C(=O)N1` [Boc-Lys(5-hexynoyl)-Dap(N3-Phe)-OMe], the ring closure, yield over several steps (from C#CCCCC(=O)NCCCC[C@H](NC(=O)OC(C)(C)C)C(=O)N[C@@H](CNC(=O)[C@H](Cc1ccccc1)N=[N+]=[N-])C(=O)OC, 20-membered ring) was determined as 61%.

As to `COC(=O)[C@@H]1CCCn2cc(nn2)CCC(=O)NCC[C@H](NC(=O)OC(C)(C)C)C(=O)N1` [Boc-Dab(4-pentynoyl)-Orn(N3)-OMe], under “from C#CCCC(=O)NCC[C@H](NC(=O)OC(C)(C)C)C(=O)N[C@@H](CCCN=[N+]=[N-])C(=O)OC, 16-membered ring”, the ring closure, yield over several steps is 99%. In the case of `COC(=O)[C@@H]1CCCCn2cc(nn2)CCCC(=O)NCCCC[C@H](NC(=O)OC(C)(C)C)C(=O)N1` [Boc-Lys(5-hexynoyl)-Lys(N3)-OMe], the ring closure, yield over several steps (from C#CCCCC(=O)NCCCC[C@H](NC(=O)OC(C)(C)C)C(=O)N[C@@H](CCCCN=[N+]=[N-])C(=O)OC, 20-membered ring) came to 98%. As for `COC(=O)[C@@H]1CCCCn2cc(nn2)CCCC(=O)NCCC[C@H](NC(=O)OC(C)(C)C)C(=O)N1` [Boc-Orn(5-hexynoyl)-Lys(N3)-OMe], for the setting “from C#CCCCC(=O)NCCC[C@H](NC(=O)OC(C)(C)C)C(=O)N[C@@H](CCCCN=[N+]=[N-])C(=O)OC, 19-membered ring”, the ring closure, yield over several steps worked out at 99%.

Regarding `COC(=O)[C@@H]1CCCCNC(=O)[C@H](Cc2ccccc2)n2cc(nn2)CCC(=O)NCC[C@H](NC(=O)OC(C)(C)C)C(=O)N1` [Boc-Dab(4-pentynoyl)-Lys(N3-Phe)-OMe], for the setting “from C#CCCC(=O)NCC[C@H](NC(=O)OC(C)(C)C)C(=O)N[C@@H](CCCCNC(=O)[C@H](Cc1ccccc1)N=[N+]=[N-])C(=O)OC, 20-membered ring”, the ring closure, yield over several steps was determined as 91%. Under “from C#CCNC(=O)NCCCC[C@H](NC(=O)OC(C)(C)C)C(=O)N[C@@H](CNC(=O)[C@H](Cc1ccccc1)N=[N+]=[N-])C(=O)OC, 19-membered ring”, `COC(=O)[C@@H]1CNC(=O)[C@H](Cc2ccccc2)n2cc(nn2)CNC(=O)NCCCC[C@H](NC(=O)OC(C)(C)C)C(=O)N1` [Boc-Lys(CONH-propargyl)-Dap(N3-Phe)-OMe] came in with a ring closure, yield over several steps of 70%.

In turn, `COC(=O)[C@@H]1CCCCNC(=O)[C@H](Cc2ccccc2)n2cc(nn2)CCCC(=O)Nc2ccc(cc2)C[C@H](NC(=O)OC(C)(C)C)C(=O)N1` [Boc-Phe(4-NH-5-hexynoyl)-Lys(N3-Phe)-OMe] gave a ring closure, yield over several steps (from C#CCCCC(=O)Nc1ccc(C[C@H](NC(=O)OC(C)(C)C)C(=O)N[C@@H](CCCCNC(=O)[C@H](Cc2ccccc2)N=[N+]=[N-])C(=O)OC)cc1, 24-membered ring) of 11%. Where the note is “from C#CCNC(=O)NCC[C@H](NC(=O)OC(C)(C)C)C(=O)N[C@@H](CNC(=O)[C@H](Cc1ccccc1)N=[N+]=[N-])C(=O)OC, 17-membered ring”, `COC(=O)[C@@H]1CNC(=O)[C@H](Cc2ccccc2)n2cc(nn2)CNC(=O)NCC[C@H](NC(=O)OC(C)(C)C)C(=O)N1` [Boc-Dab(CONH-propargyl)-Dap(N3-Phe)-OMe] registered a ring closure, yield over several steps of 64%. As to `COC(=O)[C@@H]1CCCn2cc(nn2)CCC(=O)NCCCC[C@H](NC(=O)OC(C)(C)C)C(=O)N1` [Boc-Lys(4-pentynoyl)-Orn(N3)-OMe], for the setting “from C#CCCC(=O)NCCCC[C@H](NC(=O)OC(C)(C)C)C(=O)N[C@@H](CCCN=[N+]=[N-])C(=O)OC, 18-membered ring”, the ring closure, yield over several steps worked out at 99%. In turn, `COC(=O)[C@@H]1CCCn2cc(nn2)CCCC(=O)NCCC[C@H](NC(=O)OC(C)(C)C)C(=O)N1` [Boc-Orn(5-hexynoyl)-Orn(N3)-OMe] registered a ring closure, yield over several steps (from C#CCCCC(=O)NCCC[C@H](NC(=O)OC(C)(C)C)C(=O)N[C@@H](CCCN=[N+]=[N-])C(=O)OC, 18-membered ring) of 71%. As to `COC(=O)[C@@H]1CCCCNC(=O)[C@H](Cc2ccccc2)n2cc(nn2)CCCC(=O)NCCCC[C@H](NC(=O)OC(C)(C)C)C(=O)N1` [Boc-Lys(5-hexynoyl)-Lys(N3-Phe)-OMe], the ring closure, yield over several steps (from C#CCCCC(=O)NCCCC[C@H](NC(=O)OC(C)(C)C)C(=O)N[C@@H](CCCCNC(=O)[C@H](Cc1ccccc1)N=[N+]=[N-])C(=O)OC, 23-membered ring) was found to be 54%. Under “from C#CCCC(=O)NCCCC[C@H](NC(=O)OC(C)(C)C)C(=O)N[C@@H](CCCCN=[N+]=[N-])C(=O)OC, 19-membered ring”, `COC(=O)[C@@H]1CCCCn2cc(nn2)CCC(=O)NCCCC[C@H](NC(=O)OC(C)(C)C)C(=O)N1` [Boc-Lys(4-pentynoyl)-Lys(N3)-OMe] came in with a ring closure, yield over several steps of 30%. Turning to `COC(=O)[C@@H]1CCCCNC(=O)[C@H](Cc2ccccc2)n2cc(nn2)CCC(=O)NCCC[C@H](NC(=O)OC(C)(C)C)C(=O)N1` [Boc-Orn(4-pentynoyl)-Lys(N3-Phe)-OMe], for the setting “from C#CCCC(=O)NCCC[C@H](NC(=O)OC(C)(C)C)C(=O)N[C@@H](CCCCNC(=O)[C@H](Cc1ccccc1)N=[N+]=[N-])C(=O)OC, 21-membered ring”, the ring closure, yield over several steps was 88%. Take `COC(=O)[C@@H]1CCCCn2cc(nn2)CCCC(=O)NCC[C@H](NC(=O)OC(C)(C)C)C(=O)N1` [Boc-Dab(5-hexynoyl)-Lys(N3)-OMe]: under “from C#CCCCC(=O)NCC[C@H](NC(=O)OC(C)(C)C)C(=O)N[C@@H](CCCCN=[N+]=[N-])C(=O)OC, 18-membered ring”, the ring closure, yield over several steps amounted to 99%. Turning to `COC(=O)[C@@H]1CCCn2cc(nn2)CCC(=O)NCCCC[C@H](NC(=O)OC(C)(C)C)C(=O)N[C@H](C(=O)OC)CCC(=O)N1` [Boc-Lys(4-pentynoyl)-Glu(gamma-Orn(N3)-OMe)-OMe], the ring closure, yield over several steps (from C#CCCC(=O)NCCCC[C@H](NC(=O)OC(C)(C)C)C(=O)N[C@@H](CCC(=O)N[C@@H](CCCN=[N+]=[N-])C(=O)OC)C(=O)OC, 23-membered ring) is 86%. `COC(=O)[C@@H]1CCCCNC(=O)[C@H](Cc2ccccc2)n2cc(nn2)CNC(=O)NCCCC[C@H](NC(=O)OC(C)(C)C)C(=O)N1` [Boc-Lys(CONH-propargyl)-Lys(N3-Phe)-OMe]: the ring closure, yield over several steps (from C#CCNC(=O)NCCCC[C@H](NC(=O)OC(C)(C)C)C(=O)N[C@@H](CCCCNC(=O)[C@H](Cc1ccccc1)N=[N+]=[N-])C(=O)OC, 22-membered ring) amounted to 99%.
